One compound from US20260115191A1, “Nilotinib Compositions with Enhanced Solubility” (Neoform Biopharmaceutical Limited, priority 2020, published 2026) can be followed below.

The nature of the data set: In-vivo testing: plasma pharmacokinetics after single oral gavage of suspension in rats. The note with it: Sprague-Dawley, rat, 10 mg/kg.

Structures can show the parent of a compound that is named as a salt.

`Cc1cn(-c2cc(NC(=O)c3ccc(C)c(Nc4nccc(-c5cccnc5)n4)c3)cc(C(F)(F)F)c2)cn1` [Nilotinib HCl monohydrate, 4-methyl-N-[3-(4-methylimidazol-1-yl)-5-(trifluoromethyl)phenyl]-3-[(4-pyridin-3-ylpyrimidin-2-yl)amino]benzamide]: the exposure AUC(0-t) amounted to 2910 ng·h/mL, the Cmax was found to be 493 ng/mL and the Tmax was found to be 2 h.
